Test results: ChEMBL document CHEMBL4507319 (2021)

What was measured:
Conditions in all cases: Compound concentration 1000.0 nM
[1] = target: Cyclin-dependent kinase 8 (Homo sapiens) (UniProt P49336)
[2] = target: T1, Ephrin type-B receptor 2 (Homo sapiens) (UniProt P29323)
T1 sequence (whole entry): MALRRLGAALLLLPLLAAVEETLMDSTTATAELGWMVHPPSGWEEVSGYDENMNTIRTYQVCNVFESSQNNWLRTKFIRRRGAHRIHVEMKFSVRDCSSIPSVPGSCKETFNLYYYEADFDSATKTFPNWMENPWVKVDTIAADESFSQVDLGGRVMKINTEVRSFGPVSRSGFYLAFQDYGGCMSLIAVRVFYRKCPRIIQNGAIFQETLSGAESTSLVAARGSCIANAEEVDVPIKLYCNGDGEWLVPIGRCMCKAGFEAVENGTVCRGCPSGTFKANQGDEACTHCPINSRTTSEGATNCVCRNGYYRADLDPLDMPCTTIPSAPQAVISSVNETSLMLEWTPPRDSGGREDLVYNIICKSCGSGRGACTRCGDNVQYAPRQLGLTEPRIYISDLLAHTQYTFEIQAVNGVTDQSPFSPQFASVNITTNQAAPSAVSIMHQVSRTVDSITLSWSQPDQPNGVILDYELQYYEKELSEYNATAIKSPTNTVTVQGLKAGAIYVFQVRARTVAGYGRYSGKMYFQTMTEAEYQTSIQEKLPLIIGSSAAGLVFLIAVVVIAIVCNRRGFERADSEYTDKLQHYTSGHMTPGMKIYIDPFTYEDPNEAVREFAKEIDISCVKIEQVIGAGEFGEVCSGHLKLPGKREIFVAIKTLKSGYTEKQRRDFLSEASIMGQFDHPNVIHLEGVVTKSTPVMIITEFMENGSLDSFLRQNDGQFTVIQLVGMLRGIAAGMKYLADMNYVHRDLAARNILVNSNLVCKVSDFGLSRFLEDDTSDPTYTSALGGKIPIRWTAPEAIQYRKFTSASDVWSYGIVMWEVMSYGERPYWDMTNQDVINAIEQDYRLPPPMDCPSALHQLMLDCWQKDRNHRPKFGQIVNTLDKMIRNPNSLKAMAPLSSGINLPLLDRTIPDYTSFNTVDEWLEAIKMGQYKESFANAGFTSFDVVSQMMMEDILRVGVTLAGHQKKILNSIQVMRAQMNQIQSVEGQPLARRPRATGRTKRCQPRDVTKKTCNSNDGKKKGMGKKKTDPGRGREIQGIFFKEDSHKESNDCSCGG

[3] = target: T2, Serine/threonine-protein kinase STK11 (Homo sapiens) (UniProt Q15831)
T2 sequence (whole entry): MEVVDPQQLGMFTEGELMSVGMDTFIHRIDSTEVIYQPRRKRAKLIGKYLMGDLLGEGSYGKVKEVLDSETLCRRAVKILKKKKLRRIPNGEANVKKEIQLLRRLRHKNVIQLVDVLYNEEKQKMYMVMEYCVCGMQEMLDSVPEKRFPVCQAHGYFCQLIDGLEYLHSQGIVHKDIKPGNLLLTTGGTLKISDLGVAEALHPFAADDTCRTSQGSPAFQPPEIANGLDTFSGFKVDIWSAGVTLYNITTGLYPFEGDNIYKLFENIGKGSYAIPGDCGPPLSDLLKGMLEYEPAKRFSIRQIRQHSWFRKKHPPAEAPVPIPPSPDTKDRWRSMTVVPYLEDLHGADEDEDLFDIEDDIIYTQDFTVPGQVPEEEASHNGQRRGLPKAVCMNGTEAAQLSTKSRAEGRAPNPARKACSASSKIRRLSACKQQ

[4] = target: Ribosomal protein S6 kinase alpha-3 (Homo sapiens, UniProt P51812)
Ribosomal protein S6 kinase alpha-3, sequence (P51812 whole entry): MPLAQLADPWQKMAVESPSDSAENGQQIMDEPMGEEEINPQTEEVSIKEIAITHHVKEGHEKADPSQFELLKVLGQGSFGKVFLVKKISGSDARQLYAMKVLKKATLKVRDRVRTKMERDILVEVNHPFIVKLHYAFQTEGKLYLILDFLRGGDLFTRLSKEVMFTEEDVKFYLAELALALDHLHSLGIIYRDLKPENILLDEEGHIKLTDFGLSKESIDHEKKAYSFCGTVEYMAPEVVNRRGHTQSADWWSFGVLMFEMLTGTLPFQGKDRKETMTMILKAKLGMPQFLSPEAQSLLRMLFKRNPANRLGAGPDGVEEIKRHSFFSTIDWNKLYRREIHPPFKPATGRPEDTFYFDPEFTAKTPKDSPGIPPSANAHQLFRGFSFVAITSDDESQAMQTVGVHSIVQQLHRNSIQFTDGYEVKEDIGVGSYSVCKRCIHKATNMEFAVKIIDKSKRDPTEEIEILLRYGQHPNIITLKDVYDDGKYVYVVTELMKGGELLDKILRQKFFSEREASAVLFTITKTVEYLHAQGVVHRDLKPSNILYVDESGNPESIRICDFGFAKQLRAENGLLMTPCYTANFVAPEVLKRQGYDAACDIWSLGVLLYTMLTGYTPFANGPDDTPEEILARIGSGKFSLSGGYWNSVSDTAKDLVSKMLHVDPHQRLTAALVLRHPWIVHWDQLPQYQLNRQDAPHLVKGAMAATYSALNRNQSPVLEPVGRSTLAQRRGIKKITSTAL

[5] = target: T3, Serine/threonine-protein kinase TAO2 (Homo sapiens) (UniProt Q9UL54)
T3 sequence (whole entry): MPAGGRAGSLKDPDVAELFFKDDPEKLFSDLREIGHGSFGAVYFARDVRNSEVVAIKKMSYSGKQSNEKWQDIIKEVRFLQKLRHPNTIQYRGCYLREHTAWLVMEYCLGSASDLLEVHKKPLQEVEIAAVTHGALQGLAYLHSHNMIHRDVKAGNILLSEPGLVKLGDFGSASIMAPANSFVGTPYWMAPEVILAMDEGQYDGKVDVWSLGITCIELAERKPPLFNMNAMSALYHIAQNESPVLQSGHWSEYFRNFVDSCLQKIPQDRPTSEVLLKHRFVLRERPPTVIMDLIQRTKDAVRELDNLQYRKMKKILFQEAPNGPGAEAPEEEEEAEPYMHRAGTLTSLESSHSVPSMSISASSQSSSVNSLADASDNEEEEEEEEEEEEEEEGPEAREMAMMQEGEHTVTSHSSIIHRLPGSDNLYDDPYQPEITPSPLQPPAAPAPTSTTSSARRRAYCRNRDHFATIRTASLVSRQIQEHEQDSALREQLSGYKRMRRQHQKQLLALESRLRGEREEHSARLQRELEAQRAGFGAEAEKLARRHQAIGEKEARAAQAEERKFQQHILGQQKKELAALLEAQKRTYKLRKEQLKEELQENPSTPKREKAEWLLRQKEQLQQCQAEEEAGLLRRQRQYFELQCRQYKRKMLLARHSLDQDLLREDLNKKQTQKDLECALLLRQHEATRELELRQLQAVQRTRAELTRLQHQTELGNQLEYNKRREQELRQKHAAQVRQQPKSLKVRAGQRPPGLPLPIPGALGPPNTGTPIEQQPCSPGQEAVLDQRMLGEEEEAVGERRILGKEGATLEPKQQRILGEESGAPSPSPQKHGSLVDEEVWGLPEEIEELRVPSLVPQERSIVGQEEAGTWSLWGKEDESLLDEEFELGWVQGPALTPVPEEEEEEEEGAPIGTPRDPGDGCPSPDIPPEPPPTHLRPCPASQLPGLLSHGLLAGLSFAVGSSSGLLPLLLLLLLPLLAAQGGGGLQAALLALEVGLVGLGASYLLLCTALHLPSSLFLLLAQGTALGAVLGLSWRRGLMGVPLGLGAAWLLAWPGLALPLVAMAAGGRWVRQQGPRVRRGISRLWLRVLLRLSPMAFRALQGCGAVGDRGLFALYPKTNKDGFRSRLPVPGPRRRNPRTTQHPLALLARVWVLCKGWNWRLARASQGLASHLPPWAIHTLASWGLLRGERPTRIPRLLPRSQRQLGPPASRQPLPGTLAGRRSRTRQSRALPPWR

Measured: residual activity

Cyclin-dependent kinase 8 (Homo sapiens), sequence (P49336 whole entry): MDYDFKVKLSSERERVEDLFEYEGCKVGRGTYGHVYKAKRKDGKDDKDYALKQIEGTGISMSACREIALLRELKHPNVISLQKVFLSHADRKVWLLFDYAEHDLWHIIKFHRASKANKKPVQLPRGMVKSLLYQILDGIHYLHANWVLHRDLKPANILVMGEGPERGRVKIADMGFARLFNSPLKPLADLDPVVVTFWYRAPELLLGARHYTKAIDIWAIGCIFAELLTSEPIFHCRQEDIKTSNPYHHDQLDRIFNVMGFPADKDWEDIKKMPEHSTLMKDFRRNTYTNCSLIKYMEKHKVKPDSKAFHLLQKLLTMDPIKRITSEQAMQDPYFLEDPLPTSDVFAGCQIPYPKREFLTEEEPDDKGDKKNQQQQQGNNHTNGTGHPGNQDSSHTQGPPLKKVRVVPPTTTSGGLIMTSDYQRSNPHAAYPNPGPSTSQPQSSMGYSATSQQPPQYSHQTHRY

CCc1ccccc1C(=O)Nc1n[nH]c2c(C)c(F)c(C3C(C#N)=C(C)N(C)C(C)=C3C#N)cc12 [BAY-3827]
inactive: [1] 71% | [2] 76% | [3] 100% | [4] 100% | [5] 96%

CC1=C(C#N)C(c2ccc3c(c2)c(NC(=O)c2ccccc2C)nn3C)C(C#N)=C(C)N1 [BAY-974]
inactive: [1] 97% | [2] 86% | [3] 89% | [4] 94% | [5] 70%
